# Source: paper PMC12221113, “Deferasirox Derivatives as Inhibitors of Kallikrein‐Related Peptidases Associated to Neurodegenerative Diseases” (Chemmedchem, 2025)
# Read-outs that look alike come from different tables or passages of the source.
# Assays:
# KLK8 = target: T1, KLK8 (Homo sapiens, UniProt O60259); experiment: KLK8 fluorogenic enzyme inhibition assay (Boc-VPR-AMC)
# T1 sequence (O60259 33-260): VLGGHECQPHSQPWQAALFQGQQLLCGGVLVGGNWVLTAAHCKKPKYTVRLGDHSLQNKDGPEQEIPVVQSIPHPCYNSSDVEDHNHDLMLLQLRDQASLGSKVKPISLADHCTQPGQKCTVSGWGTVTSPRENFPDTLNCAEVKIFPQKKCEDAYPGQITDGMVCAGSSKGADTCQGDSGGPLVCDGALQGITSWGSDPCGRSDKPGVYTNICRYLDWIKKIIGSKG
# Description: (§1) All enzyme stocks were stored at −20 °C and purchased from R&D Systems as proenzymes (KLK6, KLK8, KLK13) or as mature and active forms (KLK5). Activation of KLK6, KLK8, and KLK13 is performed in optimized buffers. The activation reaction is initiated by Lysyl‐Endopeptidase at 2.5 mU mL^−1 (Wako Bioproducts). The activation reaction is stopped by diluting the enzyme to 0.5 μg mL^−1 in assay buffer (50 mM Tris, 1 M Citrate, 0.05% w/v Brij‐35, pH 8) to obtain an active enzyme stock. KLK1 was purchased from R & D Systems as pro‐KLK1. Activation of KLK1 is performed in 50 mM Tris‐HCl, 10 mM CaCl2, 150 mM NaCl, 0.05% Brij‐35, pH 7.5. The activation reaction is initiated by bacterial thermolysin at 0.4 μg mL^−1 (Sigma‐Aldrich) and stopped by addition of 100 mM EDTA (Sigma‐Aldrich) to obtain an active KLK1 stock at the same concentration of 100 μg mL^−1. […] All enzyme stocks were stored at −20 °C. H‐PFR‐AMC (KLK1), Boc‐VPR‐AMC (KLK5, KLK8, KLK13), Boc‐QAR‐AMC (KLK6, Plasmin), substrates were purchased from Bachem. […] Plasmin (Sigma‐Aldrich) was purchased in mature and active form.
# (§2) Compounds were screened on KLKs using a BMG Fluostar microplate reader (black 96‐well microplates). Hit compounds were screened on the selected group of enzymes using optimized concentrations and buffers (KLK1 0.8 nM, KLK4 10 nM, KLK5 0.2 nM; KLK6 1.9 nM; KLK7 6 nM; KLK8 0.2 nM; KLK11 5.2 nM, KLK13 0.47 nM, KLK14 2.5 nM, plasmin 3.3 nM, thrombin 0.1 nM, tissue‐plasminogen activator (tPA) 0.1 nM, matriptase 1 nM, cathepsin L 2 nM) either in absence or prior preincubation in the presence of 100 μM of Fe^3+.
# (§3) The proteases are first preincubated for 15 min with each compound (50 and 100 μM) or with DMSO (<2%, negative control) in a total volume of 85 μL of 50 mM Tris buffer, 1 M citrate, 0.05% Brij‐35, pH 7, 37 °C. The reaction is triggered by the appropriate substrate at the optimized concentration in 15 μL of 50 mM Tris buffer, 1 M citrate, 0.05% Brij‐35, pH 8 (H‐PFR‐AMC 100 μM; Boc‐VPR‐AMC 100 μM; Boc‐QAR‐AMC 100 μM; Meo‐Suc‐RPY‐AMC 150 μM, Z‐LR‐AMC 100 μM, Z‐GGR‐AMC 100 μM) and followed for 30 min at 37 °C. […] The release of the AMC fluorescent group is detected using the following wavelengths: λex = 360 nm and λem = 460 nm. The percent inhibition is calculated from Equation (1) where V 0 is the initial rate of the DMSO control, the initial rate in the presence of the inhibitor V i. (1) %inhibition=(1−(vi/v0))×100
# (§4) The equation is entered in the Kaleidagraph 4.5 software for curve fitting f([I]) = % Inhibition, where [I] is the inhibitor concentration.
# (§5) The mechanism of inhibition was determined by varying substrate and inhibitor concentrations, the type of inhibition and inhibition parameter (Ki or Ki′) are determined by Dixon's plots.
# [1] = UV–vis spectroscopy of Fe3+ chelation and complex stability; format: physicochemical; details: activity buffer pH 7.4, 1:1 ratio, t = 0 to 240 min
# Description: UV–vis analysis of DFX was first performed to monitor the chelation process and the stability of the Fe^3+ complex over time at a 1:1 ratio, typically representing the duration of inhibition assay (30 min to 4 h) (Figure S1, Supporting Information). In these conditions of pH (7.4) and ligand‐to‐iron ratio and according to Steinhauser et al. the main species in solution is assigned to [Fe(DFX)2]^3−.^[ [49] ^] Indeed, we aimed to explore not only the chelation properties but also the impact of the chelated species on enzyme inhibition.
# 2.c. Chelation properties, iron interactions, and selectivity profiles of selected compounds targeting KLK activity.
# Figure S2: Stability of the chelated species as monitored by spectrophotometry. UV/VIS spectra of molecules alone using activity buffer at pH 7.4 (in orange at 500 µM) or in the presence of FeCl3 (ratio of 1:1) at different times (t = 0 in red, 30 min in black, 60 min in blue and 240 min in green). The purple trace corresponds to iron only at 500 µM All data are representative of 2 independent experiments performed in duplicate. […]
# [2] = Calcein transchelation (calcein release) assay; format: physicochemical; details: calcein 100 nM, 4 h at room temperature; estimation, assay not fully quantitative; read-out: Apparent affinity (pseudo‐affinity constant Kd for Fe3+)
# KLK1 = KLK1 (Homo sapiens, UniProt P06870); experiment: KLK1 fluorogenic enzyme inhibition assay (H-PFR-AMC)
# Chain of KLK1 (P06870 25-262): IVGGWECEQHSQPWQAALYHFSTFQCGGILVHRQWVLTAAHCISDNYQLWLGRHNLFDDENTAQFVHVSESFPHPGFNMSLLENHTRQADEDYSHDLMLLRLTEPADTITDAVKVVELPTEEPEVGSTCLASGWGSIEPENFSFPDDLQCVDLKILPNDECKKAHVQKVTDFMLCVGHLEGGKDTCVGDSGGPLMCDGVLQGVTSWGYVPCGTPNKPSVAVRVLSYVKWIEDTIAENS
# Description: as §1, §2, §3, §4, §5
# KLK6 = KLK6 (Homo sapiens, UniProt Q92876); experiment: KLK6 fluorogenic enzyme inhibition assay (Boc-QAR-AMC)
# Description: as §1, §2, §3, §4, §5
# [3] = IC50 KLK8, 15 min preincubation at 37 °C, NI = not a hit (not above 50% inhibition at 50 μM)
# [4] = IC50 KLK1, 15 min preincubation at 37 °C, NI = not a hit (not above 50% inhibition at 50 μM)
Structure (SMILES),IC50 (KLK8),IC50 (KLK1; [4]),IC50 (KLK6),also measured
N#Cc1ccc(-n2nc(-c3ccccc3O)nc2-c2ccccc2O)cc1 [3o],> 50 µM,–,–,–
Oc1ccccc1-c1nc(-c2ccccc2O)n(-c2ccc(Br)cc2)n1 [3p],> 50 µM,–,–,–
COc1ccc(-n2nc(-c3ccccc3O)nc2-c2ccccc2O)cc1 [3q],–,–,–,IC50 (KLK8; [3]): > 50 µM
NS(=O)(=O)c1ccc(-n2nc(-c3ccccc3O)nc2-c2ccccc2O)cc1 [3s],> 50 µM,–,–,–
O=S(=O)(O)c1ccc(-n2nc(-c3ccccc3O)nc2-c2ccccc2O)cc1 [3t],29.5 ± 1.4 µM,–,–,UV–vis spectrum in the presence of FeCl3 (iron complex formation) [1]: appearance of an absorption band with a maximum at 468 nm; Kd [2]: 0.165 ± 0.017 nM
NC(=O)c1ccc(-n2nc(-c3ccccc3O)nc2-c2ccccc2O)cc1 [3u],23.7 ± 2.3 µM,–,–,Kd [2]: 0.093 ± 0.007 nM
Oc1ccccc1-c1nc(-c2ccccc2O)n(-c2ccc(-c3nnn[nH]3)cc2)n1 [3v],44.1 ± 1.7 µM,–,–,–
[Cl][Fe]([Cl])[Cl] [Fe3+],–,–,–,"IC50 (KLK1; read-out: Pseudo-IC50 of Fe3+ on KLK1, Figure S4 A, curve fit y=(100*M0)/(M0+M2)): 989 µM; IC50 (KLK8; read-out: Pseudo-IC50 of Fe3+ on KLK8, Figure S4 C, curve fit y=(100*M0)/(M0+M2)): 1120 µM; IC50 (KLK6; read-out: Pseudo-IC50 of Fe3+ on KLK6, Figure S4 B, curve fit y=(100*M0)/(M0+M2)): 1320 µM"
O=C(O)c1ccc(-n2nc(-c3ccccc3)nc2-c2ccccc2O)cc1 [compound 9],46.8 ± 0.2 µM,> 50 µM,> 50 µM,UV–vis spectrum in the presence of FeCl3 (iron complex formation) [1]: no changes in the absorption spectra
COc1ccc(-c2nc(-c3ccccc3O)n(-c3ccc(C(=O)O)cc3)n2)cc1 [compound 10],33.4 ± 1.1 µM,> 50 µM,> 50 µM,–
COc1ccc(-c2nc(-c3ccccc3O)nn2-c2ccc(C(=O)O)cc2)c(O)c1 [compound 13],24.8 ± 1.3 µM,> 50 µM,> 50 µM,UV–vis spectrum in the presence of FeCl3 (iron complex formation) [1]: a similar absorption band is observed; Kd [2]: 0.077 ± 0.019 nM
O=C(O)c1ccc(-n2nc(-c3ccccc3O)nc2-c2ccc(O)cc2O)cc1 [compound 14],38.3 ± 3.5 µM,> 50 µM,> 50 µM,–
COc1ccc(-c2nc(-c3cccnc3O)n(-c3ccc(C(=O)O)cc3)n2)cc1 [compound 19],–,–,–,"IC50 (KLK1; read-out: IC50 KLK1, 15 min preincubation at 37 °C, NI = not a hit (not above 50% inhibition at 50 μM)): > 50 µM"
COc1ccccc1-c1nc(-c2ccccc2OC)n(-c2ccc(C(=O)O)cc2)n1 [compound 21],> 50 µM,> 50 µM,> 50 µM,–
Oc1ccccc1-c1noc(-c2ccccc2O)n1 [compound 23],–,–,–,IC50 (KLK8; [3]): > 50 µM
